The results in this text go back to patent publication US12673944B2, “Compounds having inhibitory activity against glucosylceramide synthase or pharmaceutically acceptable salt thereof, processes for preparing the same, and pharmaceutical compositions comprising the same” (YUHAN CORPORATION, priority 2019, dated 2026).

Like-named read-outs stand apart in the source and are kept apart here.

The target in assay [1] is T1, glucosylceramide synthase (GCS) (Homo sapiens, UniProt Q16739).
T1 construct: The obtained supernatant was used; host or cells: A549 cells (lysate supernatant after sonication)
T1 sequence (Q16739 1-394): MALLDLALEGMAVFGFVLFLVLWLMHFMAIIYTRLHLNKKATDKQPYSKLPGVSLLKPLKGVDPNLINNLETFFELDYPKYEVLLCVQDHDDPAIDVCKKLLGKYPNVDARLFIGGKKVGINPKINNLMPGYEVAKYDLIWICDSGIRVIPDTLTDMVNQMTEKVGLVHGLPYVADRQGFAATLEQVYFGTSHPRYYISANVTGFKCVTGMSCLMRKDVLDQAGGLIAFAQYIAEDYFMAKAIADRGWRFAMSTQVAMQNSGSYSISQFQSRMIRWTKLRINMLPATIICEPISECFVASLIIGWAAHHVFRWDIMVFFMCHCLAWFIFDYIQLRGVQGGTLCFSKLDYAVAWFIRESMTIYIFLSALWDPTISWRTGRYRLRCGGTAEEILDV
As to the kind of experiment: GCS enzyme inhibition assay (A549 cell lysate, NBD C6-ceramide, HPLC fluorescence). The class given is biochemical. The settings on record: inhibitory activity against GCS, 37° C., 90 minutes. In short, it runs like this: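 A549 cell lysate (50 mM HEPES pH 7.3) served as GCS source; reactions ran 90 min at 37° C, were stopped with chloroform/methanol and lipids extracted. Activity taken as GlcCer/(Cer+GlcCer) peak area, normalised between DMSO and ibiglustat controls.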

Assay [2] concerns GM1 production in Jurkat cells. As to the kind of experiment: cells. It counts as cell-based.

The term IC50 denotes the concentration needed to halve the response being measured. Read a low IC50 as higher potency.

Consider `COc1ccc(-c2ccc3c(c2)OCC(C)(C)C3NC(=O)O[C@@H]2CN3CCC2CC3)cc1C(F)(F)F` (stereo partly drawn) [Example 210, (S)-quinuclidin-3-yl (7-(4-methoxy-3-(trifluoromethyl)phenyl)-3,3-dimethylchroman-4-yl)carbamate], for which the IC50 was 1.57 nM in assay [1] and 18 nM in assay [2].

Consider `CC1(C)COc2cc(-c3ccc(C(F)(F)F)cc3)ccc2C1NC(=O)O[C@@H]1CN2CCC1CC2` (stereo partly drawn) [Example 211, (S)-quinuclidin-3-yl (3,3-dimethyl-7-(4-(trifluoromethyl)phenyl)chroman-4-yl)carbamate], for which the IC50 in assay [1] was determined as 0.71 nM; in assay [2] (Homo sapiens, Jurkat, 72 h), 1.41 nM.

Consider `CC1(C)COc2cc(-c3cccc4[nH]ncc34)ccc2C1NC(=O)O[C@@H]1CN2CCC1CC2` (stereo partly drawn) [Example 212, (S)-quinuclidin-3-yl (7-(1H-indazol-4-yl)-3,3-dimethylchroman-4-yl)carbamate], for which the IC50 worked out at 0.87 nM in assay [1] and 2.45 nM in assay [2] (Homo sapiens, Jurkat, 72 h).

Consider `CC1(C)COc2cc(-c3ccc(Cl)cc3)ccc2C1NC(=O)O[C@@H]1CN2CCC1CC2` (stereo partly drawn) [Example 213, (S)-quinuclidin-3-yl (7-(4-chlorophenyl)-3,3-dimethylchroman-4-yl)carbamate], for which the IC50 in assay [1] is 0.78 nM; in assay [2] (Homo sapiens, Jurkat, 72 h) it was 0.03 nM.

As to `CC1(C)COc2cc(-c3ccc(F)cc3)ccc2C1NC(=O)O[C@@H]1CN2CCC1CC2` (stereo partly drawn) [Example 214, (S)-quinuclidin-3-yl (7-(4-fluorophenyl)-3,3-dimethylchroman-4-yl)carbamate], the IC50 turned out to be 0.55 nM in assay [1] and 1.81 nM in assay [2] (Homo sapiens, Jurkat, 72 h).

Turning to `COc1ncc(-c2ccc3c(c2)OCC(C)(C)C3NC(=O)O[C@@H]2CN3CCC2CC3)cc1Cl` (stereo partly drawn) [Example 215, (S)-quinuclidin-3-yl (7-(5-chloro-6-methoxypyridin-3-yl)-3,3-dimethylchroman-4-yl)carbamate], the IC50 in assay [1] amounted to 1.57 nM; in assay [2] (Homo sapiens, Jurkat, 72 h), 2.51 nM.

Turning to `CN1C(=O)COc2ccc(-c3ccc4c(c3)OCC(C)(C)C4NC(=O)O[C@@H]3CN4CCC3CC4)cc21` (stereo partly drawn) [Example 216, (S)-quinuclidin-3-yl (3,3-dimethyl-7-(4-methyl-3-oxo-3,4-dihydro-2H-benzo[b][1,4]oxazin-6-yl)chroman-4-yl)carbamate], the IC50 was 1.51 nM in assay [1] and 8.58 nM in assay [2] (Homo sapiens, Jurkat, 72 h).

With `CC1(C)COc2cc(-c3ccc(F)c(F)c3F)ccc2C1NC(=O)O[C@@H]1CN2CCC1CC2` (stereo partly drawn) [Example 217, (S)-quinuclidin-3-yl (3,3-dimethyl-7-(2,3,4-trifluorophenyl)chroman-4-yl)carbamate], the IC50 in assay [1] came to 0.55 nM; in assay [2] (Homo sapiens, Jurkat, 72 h), 7.35 nM.

As for `CC1(C)COc2cc(-c3ccc(OC(F)F)cc3)ccc2C1NC(=O)O[C@@H]1CN2CCC1CC2` (stereo partly drawn) [Example 218, (S)-quinuclidin-3-yl (7-(4-(difluoromethoxy)phenyl)-3,3-dimethylchroman-4-yl)carbamate], the IC50 in assay [1] turned out to be 0.4 nM; in assay [2] (Homo sapiens, Jurkat, 72 h) it was 2.69 nM.

As for `CC1(C)COc2cc(-c3cccc4ncccc34)ccc2C1NC(=O)O[C@@H]1CN2CCC1CC2` (stereo partly drawn) [Example 219, (S)-quinuclidin-3-yl (3,3-dimethyl-7-(quinolin-5-yl)chroman-4-yl)carbamate], the half-maximal inhibitory concentration (IC50) in assay [1] was 2.26 nM; in assay [2] (Homo sapiens, Jurkat, 72 h) it was 7.58 nM.

Regarding `CC1(C)COc2cc(-c3ccc4nonc4c3)ccc2C1NC(=O)O[C@@H]1CN2CCC1CC2` (stereo partly drawn) [Example 220, (S)-quinuclidin-3-yl (7-(benzo[c][1,2,5]oxadiazol-5-yl)-3,3-dimethylchroman-4-yl)carbamate], the IC50 in assay [1] was 0.8 nM; in assay [2] (Homo sapiens, Jurkat, 72 h), 2.42 nM.

As for `Cc1cncc(-c2ccc3c(c2)OCC(C)(C)C3NC(=O)O[C@@H]2CN3CCC2CC3)c1` (stereo partly drawn) [Example 221, (S)-quinuclidin-3-yl (3,3-dimethyl-7-(5-methylpyridin-3-yl)chroman-4-yl)carbamate], the IC50 was determined as 0.74 nM in assay [1] and 2.8 nM in assay [2] (Homo sapiens, Jurkat, 72 h).

Regarding `CC1(C)COc2cc(-c3cccnc3F)ccc2C1NC(=O)O[C@@H]1CN2CCC1CC2` (stereo partly drawn) [Example 222, (S)-quinuclidin-3-yl (7-(2-fluoropyridin-3-yl)-3,3-dimethylchroman-4-yl)carbamate], the IC50 in assay [1] was 0.79 nM; in assay [2] (Homo sapiens, Jurkat, 72 h), 6.59 nM.

For `Cc1ccc(-c2ccc3c(c2)OCC(C)(C)C3NC(=O)O[C@@H]2CN3CCC2CC3)c(Cl)c1` (stereo partly drawn) [Example 223, (S)-quinuclidin-3-yl (7-(2-chloro-4-methylphenyl)-3,3-dimethylchroman-4-yl)carbamate], the IC50 turned out to be 1.58 nM in assay [1] and 1.6 nM in assay [2] (Homo sapiens, Jurkat, 72 h).

Regarding `Cc1ccc(Cl)c(-c2ccc3c(c2)OCC(C)(C)C3NC(=O)O[C@@H]2CN3CCC2CC3)c1` (stereo partly drawn) [Example 224, (S)-quinuclidin-3-yl (7-(2-chloro-5-methylphenyl)-3,3-dimethylchroman-4-yl)carbamate], the IC50 in assay [1] is 0.62 nM; in assay [2] (Homo sapiens, Jurkat, 72 h) it was 0.6 nM.

`Cc1ccc(-c2ccc3c(c2)OCC(C)(C)C3NC(=O)O[C@@H]2CN3CCC2CC3)c(F)c1` (stereo partly drawn) [Example 225, (S)-quinuclidin-3-yl (7-(2-fluoro-4-methylphenyl)-3,3-dimethylchroman-4-yl)carbamate]: the IC50 in assay [1] was determined as 0.45 nM; in assay [2] (Homo sapiens, Jurkat, 72 h) it was 1.7 nM.

On to `Cc1ccc(-c2ccc3c(c2)OCC(C)(C)C3NC(=O)O[C@@H]2CN3CCC2CC3)cc1Cl` (stereo partly drawn) [Example 226, (S)-quinuclidin-3-yl (7-(3-chloro-4-methylphenyl)-3,3-dimethylchroman-4-yl)carbamate], for which the IC50 in assay [1] came out at 0.71 nM; in assay [2] (Homo sapiens, Jurkat, 72 h) it was 1.3 nM.

Take `Cc1cc(F)ccc1-c1ccc2c(c1)OCC(C)(C)C2NC(=O)O[C@@H]1CN2CCC1CC2` (stereo partly drawn) [Example 227, (S)-quinuclidin-3-yl (7-(4-fluoro-2-methylphenyl)-3,3-dimethylchroman-4-yl)carbamate]: the IC50 came to 0.56 nM in assay [1] and 4.5 nM in assay [2] (Homo sapiens, Jurkat, 72 h).

On to `Cc1ccc(-c2ccc3c(c2)OCC(C)(C)C3NC(=O)O[C@@H]2CN3CCC2CC3)cc1F` (stereo partly drawn) [Example 228, (S)-quinuclidin-3-yl (7-(3-fluoro-4-methylphenyl)-3,3-dimethylchroman-4-yl)carbamate], for which the IC50 in assay [1] was 0.55 nM; in assay [2] (Homo sapiens, Jurkat, 72 h) it was 1.3 nM.

Take `Cc1cc(-c2ccc3c(c2)OCC(C)(C)C3NC(=O)O[C@@H]2CN3CCC2CC3)ccc1F` (stereo partly drawn) [Example 229, (S)-quinuclidin-3-yl (7-(4-fluoro-3-methylphenyl)-3,3-dimethylchroman-4-yl)carbamate]: the IC50 in assay [1] was determined as 0.71 nM; in assay [2] (Homo sapiens, Jurkat, 72 h), 2.1 nM.

Turning to `CC1(C)COc2cc(-c3ccc(Cl)cc3Cl)ccc2C1NC(=O)O[C@@H]1CN2CCC1CC2` (stereo partly drawn) [Example 230, (S)-quinuclidin-3-yl (7-(2,4-dichlorophenyl)-3,3-dimethylchroman-4-yl)carbamate], the half-inhibitory concentration (IC50) in assay [1] was 0.86 nM; in assay [2] (Homo sapiens, Jurkat, 72 h), 0.8 nM.

For `CC1(C)COc2cc(-c3ccc(F)cc3Cl)ccc2C1NC(=O)O[C@@H]1CN2CCC1CC2` (stereo partly drawn) [Example 231, (S)-quinuclidin-3-yl (7-(2-chloro-4-fluorophenyl)-3,3-dimethylchroman-4-yl)carbamate], the IC50 in assay [1] came out at 0.62 nM; in assay [2] (Homo sapiens, Jurkat, 72 h) it was 1.5 nM.

Consider `CC1(C)COc2cc(-c3cc(F)ccc3Cl)ccc2C1NC(=O)O[C@@H]1CN2CCC1CC2` (stereo partly drawn) [Example 232, (S)-quinuclidin-3-yl (7-(2-chloro-5-fluorophenyl)-3,3-dimethylchroman-4-yl)carbamate], for which the IC50 in assay [1] turned out to be 0.41 nM; in assay [2] (Homo sapiens, Jurkat, 72 h), 0.3 nM.

Regarding `CC1(C)COc2cc(-c3ccc(F)cc3F)ccc2C1NC(=O)O[C@@H]1CN2CCC1CC2` (stereo partly drawn) [Example 233, (S)-quinuclidin-3-yl (7-(2,4-difluorophenyl)-3,3-dimethylchroman-4-yl)carbamate], the IC50 in assay [1] was determined as 0.49 nM; in assay [2] (Homo sapiens, Jurkat, 72 h), 3 nM.

Regarding `CC1(C)COc2cc(-c3cc(F)ccc3F)ccc2C1NC(=O)O[C@@H]1CN2CCC1CC2` (stereo partly drawn) [Example 234, (S)-quinuclidin-3-yl (7-(2,5-difluorophenyl)-3,3-dimethylchroman-4-yl)carbamate], the IC50 in assay [1] was found to be 0.4 nM; in assay [2] (Homo sapiens, Jurkat, 72 h), 1.1 nM.

`CC1(C)COc2cc(-c3cccc(Cl)c3Cl)ccc2C1NC(=O)O[C@@H]1CN2CCC1CC2` (stereo partly drawn) [Example 235, (S)-quinuclidin-3-yl (7-(2,3-dichlorophenyl)-3,3-dimethylchroman-4-yl)carbamate]: the IC50 in assay [1] was 0.75 nM; in assay [2] (Homo sapiens, Jurkat, 72 h), 7.1 nM.

For `CC1(C)COc2cc(-c3ccc(F)c(Cl)c3)ccc2C1NC(=O)O[C@@H]1CN2CCC1CC2` (stereo partly drawn) [Example 236, (S)-quinuclidin-3-yl (7-(3-chloro-4-fluorophenyl)-3,3-dimethylchroman-4-yl)carbamate], the IC50 in assay [1] stood at 0.75 nM; in assay [2] (Homo sapiens, Jurkat, 72 h), 3.6 nM.

For the compound `CC1(C)COc2cc(-c3cccc(F)c3Cl)ccc2C1NC(=O)O[C@@H]1CN2CCC1CC2` (stereo partly drawn) [Example 237, (S)-quinuclidin-3-yl (7-(2-chloro-3-fluorophenyl)-3,3-dimethylchroman-4-yl)carbamate], the IC50 was 0.63 nM in assay [1] and 5.1 nM in assay [2] (Homo sapiens, Jurkat, 72 h).

On to `CC1(C)COc2cc(-c3ccc(F)c(F)c3)ccc2C1NC(=O)O[C@@H]1CN2CCC1CC2` (stereo partly drawn) [Example 238, (S)-quinuclidin-3-yl (7-(3,4-difluorophenyl)-3,3-dimethylchroman-4-yl)carbamate], for which the IC50 in assay [1] amounted to 0.47 nM; in assay [2] (Homo sapiens, Jurkat, 72 h), 5.9 nM.
